Assay type in all cases: functional
The test system of experiment [1] is Pneumocystis carinii. In words: in vivo activity against Pneumocystis carinii at dose of 22.1 umol/kg/day.
Experiment [2] has as its system Pneumocystis carinii. The experiment in a line: Percentage of control was reported as the counted cysts in lung tissue using blinded protocol of saline-treated controls on Pneumocystis carinii at dose of 22.1 umol/kg/day.
Experiment [3] deals with Cryptosporidium parvum. In words: percentage of controls is reported as the counted oocysts obtained from alimentary tract tissues using a blinded protocol on Cryptosporidium parvum at dose of 62 umol/kg/day.
Experiment [4] can be described thus: In vitro increase in thermal melting of oligomer d(CGCGAATTCGCG)2.

In experiment [1], `N=C(N)c1ccc(OCCCCCOc2ccc(C(=N)N)cc2)cc1` [PENTAMIDINE] yielded a Toxicity of 2. Further, the Of control is given as 1.47% in experiment [2] and 20.8% in experiment [3]. Moreover, the ΔTm in experiment [4] amounted to 4.8.

For the origin of these results see ChEMBL document CHEMBL1129395, “Targeting the minor groove of DNA: crystal structures of two complexes between furan derivatives of berenil and the DNA dodecamer d(CGCGAATTCGCG)2” (1996).
